RP-LC retention time data for 80 molecules are collected here from the METLIN SMRT retention time set (Domingo-Almenara et al. 2019).

A short description of the data set: gradient 5% acetonitrile 3 min, to 50% in 2 min, to 85% in 15 min, held 3 min, 100 µL/min. The conditions noted are these: column: Zorbax Extend-C18 2.1 x 50 mm; eluents: water / acetonitrile, 0.1% formic acid. Summed up: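 Over 3 months, pure standards in mixtures of ~100 molecules were run by HPLC coupled to a quadrupole time-of-flight mass spectrometer in positive and negative ionization mode. The column was a Zorbax Extend-C18 (2.1 × 50 mm, 1.8 μm) at 100 μL/min, eluted with water and acetonitrile each holding 0.1% formic acid, with 40 μL dead and 900 μL dwell volumes. Retention time was determined from adduct peaks chosen by software and checked manually.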
`CCCc1noc(-c2ccc3nnc(CC(=O)Nc4ccc(F)cc4)n3c2)n1`: the RP-LC retention time was determined as 848 s.

`COc1ccc(-c2nc(NC(C)C)c3ccccc3n2)cc1` returned an RP-LC retention time of 743 s.

Regarding `Cc1ccc(-c2nnc(SCc3cc(=O)n4oc(C)cc4n3)o2)cc1`, the RP-LC retention time worked out at 759 s.

`O=C(Nc1ccc(Nc2ccncc2)cc1)c1ccc(Nc2ccnc3ccc([N+](=O)[O-])cc23)cc1` gave an RP-LC retention time of 636 s.

Take `O=C(CN1c2ccc(F)cc2-c2ccccc2S1(=O)=O)NCCCN1CCOCC1`: the RP-LC retention time was 625 s.

Molecule `CC1(C)CC(=O)c2cn(-c3ccc(F)cc3)c(=O)c(C(=O)N3CCc4ccccc43)c2C1` had an RP-LC retention time of 954 s.

Take `COc1ccc(S(=O)(=O)NCCc2c[nH]c3ccc(F)cc23)cc1`: the RP-LC retention time came to 866 s.

`O=C1CCN(Cc2ccc3c(c2)CCO3)CCCCCCN1` registered an RP-LC retention time of 586 s.

Molecule `O=C(O)c1ccc(OCC(=O)C2CC2)cc1` had an RP-LC retention time of 636 s.

Turning to `O=C(NCc1ccccc1Cl)c1coc(NC(=O)c2cccs2)n1`, the RP-LC retention time is 719 s.

For `COc1ccc(-c2nnc(-c3ccccc3Cl)o2)cc1S(=O)(=O)N(C)C`, the RP-LC retention time worked out at 895 s.

`COc1cccc(CNC(=O)C2CCN(C(=O)c3cc4oc5ccccc5c4n3C)CC2)c1OC` came in with an RP-LC retention time of 891 s.

For `CCNC(=O)c1nc2cccnc2n(C)c1=O`, the RP-LC retention time came to 615 s.

The molecule `CCCNC(=O)Cc1c(C)nn(-c2nc(-c3ccc(Cl)cc3)cs2)c1C` yielded an RP-LC retention time of 1110 s.

In the case of `CCc1ccc2oc(C(=O)NCC(c3cccs3)N(C)C)cc(=O)c2c1` (stereo not given), the RP-LC retention time is 654 s.

For `CNC(=O)c1ccc(-c2nc3cc(NS(=O)(=O)c4ccccc4F)ccc3n2C)cc1`, the RP-LC retention time was 616 s.

For the molecule `CCS(=O)(=O)N1CCCc2cc(C(=O)NCCCOC)ccc21`, the RP-LC retention time was 700 s.

Molecule `COc1ccc(OC)c(NC(=O)C(=O)c2ccc[nH]2)c1` returned an RP-LC retention time of 909 s.

`CC(=O)Nc1nc(-c2ccc3c(c2)N(C)C(=O)CO3)cs1` displayed an RP-LC retention time of 700 s.

For `CC1CCN(c2cc(-n3cnc(C(=O)N4CCCCCC4)c3)ncn2)CC1`, the RP-LC retention time came out at 1010 s.

The molecule `CC1(C(=O)NCc2ccc(F)cc2)CN(S(=O)(=O)c2ccccc2)CC(=O)N1C1CCCCC1` (stereo not given) showed an RP-LC retention time of 1020 s.

`CNc1nc(Nc2cn(C(C)(C)C#N)nc2C)ncc1C(F)(F)F` registered an RP-LC retention time of 696 s.

The molecule `COc1ccc(-c2noc(N3CCC(C(=O)NCCN4CCOCC4)CC3)n2)cc1OC` returned an RP-LC retention time of 591 s.

With `CCc1nc(-c2csc(S(=O)(=O)N3CCC(C(=O)Nc4ccc(C)c(C)c4)CC3)c2)no1`, the RP-LC retention time came out at 660 s.

Turning to `Cc1nc2cc(-c3noc(CNC(=O)Cc4ccc(Cl)cc4)n3)ccc2o1`, the RP-LC retention time was found to be 858 s.

With `Cc1ccn2cc(C(=O)NCC3CCCCC3)nc2c1`, the RP-LC retention time is 714 s.

In turn, `CCc1nc(N)n(CC(=O)Nc2ccc(Cl)cc2)c(=O)c1C` returned an RP-LC retention time of 661 s.

Take `Cn1nc(-c2nc(C3CC3)no2)c2c1CCN(C(=O)c1ccc(F)c(Cl)c1)C2`: the RP-LC retention time is 900 s.

Regarding `O=C(Nc1ccc(Nc2ccccc2)cc1)Nc1ccccc1Cl`, the RP-LC retention time amounted to 1130 s.

The molecule `O=C(NC1CC1)C1CC(=O)N(c2ccc3c(c2)CCN3C(=O)C2CC2)C1` (stereo not given) yielded an RP-LC retention time of 630 s.

For `O=c1c(S(=O)(=O)N2CCCCCC2)cccn1Cc1ccccc1F`, the RP-LC retention time amounted to 941 s.

`Cc1cc2c(c(=O)n(-c3ccc(F)cc3)c(=O)n2CC(=O)Nc2ccccc2F)n1C` had an RP-LC retention time of 837 s.

`CC(=O)N1CCC(C(=O)NCc2ccc(-c3nc(-c4cccs4)no3)s2)CC1` gave an RP-LC retention time of 731 s.

The molecule `CC(C)c1ccc(NC(=O)Cn2ncc3c(c2=O)N(C2CC2)C(=O)CS3)cc1` came in with an RP-LC retention time of 784 s.

Take `CC(=O)NCc1c(-c2ccc(Cl)cc2)nc2n1CCS2`: the RP-LC retention time turned out to be 568 s.

`O=C(Cn1ccnc1)N1CCCCC1c1nncn1Cc1ccccc1` (stereo not given) displayed an RP-LC retention time of 579 s.

With `CCC1Oc2ccc(C)cc2N(CC(=O)NCCN(C)C)C1=O` (stereo not given), the RP-LC retention time worked out at 631 s.

`CCC(=O)N(C1CCOCC1)C1CCN(S(=O)(=O)c2cccnc2)CC1` registered an RP-LC retention time of 807 s.

As to `Cc1ccc(C)c(N2CCN(c3ccnc(SCC(=O)Nc4cccc(Cl)c4C)n3)CC2)c1`, the RP-LC retention time came to 1020 s.

Molecule `COCCCNC(=O)CC1CCN(C(=O)c2[nH]c(C)c(C)c2C)CC1` gave an RP-LC retention time of 667 s.

With `O=C(NCCC1=CCCCC1)c1ccc2ccnc(N3CCN(c4ccccc4)CC3)c2c1`, the RP-LC retention time was 958 s.

The molecule `CCn1nnc2c(N3CCN(S(=O)(=O)c4cccc(Cl)c4)CC3)ncnc21` came in with an RP-LC retention time of 880 s.

For the molecule `Cc1ccc(-c2csc(NC3OC(=O)c4ccccc43)n2)cc1C` (stereo not given), the RP-LC retention time amounted to 808 s.

For `COc1cc(Cl)ccc1C(=O)NC1CCN(c2cc(-c3ccc(F)cc3)[nH]n2)C1` (stereo not given), the RP-LC retention time was 807 s.

Molecule `CN(Cc1ccc(Cl)c(F)c1)C1CCc2nnc(C3CCOCC3)n2CC1` (stereo not given) registered an RP-LC retention time of 590 s.

For the molecule `Cc1ccc(C)c(Cn2nc3c(S(=O)(=O)N4CCCC4)cccn3c2=O)c1`, the RP-LC retention time came to 914 s.

As to `CSc1nc(NC(C)C)c(C#N)c(-c2ccccc2)n1`, the RP-LC retention time came to 1190 s.

As for `Cc1ccc(-c2nc3ncccn3c2NCc2ccc(F)cc2)cc1C`, the RP-LC retention time amounted to 789 s.

`Cc1nc(C)c(C(=O)N2CCC(Oc3ccc(-c4noc(C5CC5)n4)cc3)C2)s1` (stereo not given) yielded an RP-LC retention time of 860 s.

`COc1ccc(Cl)cc1C(=O)Nc1cc(-c2cccnc2)no1` had an RP-LC retention time of 902 s.

In turn, `CCCN1CCN(C(=O)C2CCCN(c3nc4cccnc4s3)C2)CC1` (stereo not given) came in with an RP-LC retention time of 593 s.

Take `CCn1cc(-c2nc(CC(=O)Nc3ccc(F)c(Cl)c3)cs2)c2cccnc21`: the RP-LC retention time worked out at 1020 s.

Take `CC(=O)N1c2ccc(S(=O)(=O)N3CCCCCC3)cc2CC1C(=O)NC(C)c1ccccc1` (stereo not given): the RP-LC retention time is 925 s.

`CCc1ccc(S(=O)(=O)N2CCN(Cc3nc4cc(C(C)(C)C)ccc4o3)CC2)cc1` came in with an RP-LC retention time of 998 s.

Turning to `NC(=O)C1CCN(c2ccc3cccc(OCC(=O)NCc4ccco4)c3n2)CC1`, the RP-LC retention time was 552 s.

The molecule `Cn1nc(-c2nnc(-c3ccccc3Cl)o2)c2c1CCN(C(=O)c1ccc(F)c(F)c1)C2` had an RP-LC retention time of 877 s.

As for `CCCCn1cc(S(=O)(=O)NCc2cccc(F)c2)c2cccnc21`, the RP-LC retention time was found to be 964 s.

As for `COc1cccc(CNC(=O)C2(C)CCN(C(=O)Nc3ccccc3C(F)(F)F)CC2)c1`, the RP-LC retention time worked out at 806 s.

With `O=C(CN1C(=O)CCCc2cc(S(=O)(=O)N3CCCCC3)ccc21)NC1CCCCC1`, the RP-LC retention time was determined as 880 s.

Molecule `O=C(NCCCN1CCCC1=O)C1=C2CCCN2c2ccc(F)cc2S1(=O)=O` returned an RP-LC retention time of 650 s.

Molecule `CCCN1CCN(CCCNC(=O)C2CCCN(c3nc4cccnc4s3)C2)CC1` (stereo not given) returned an RP-LC retention time of 573 s.

In turn, `Cc1ccc(-c2nnc(Cc3nc(-c4cccs4)no3)o2)cc1F` had an RP-LC retention time of 1010 s.

`O=C(CCCN1C(=O)C(c2ccccc2)Oc2cccnc21)NCCCN1CCOCC1` (stereo not given): the RP-LC retention time was 615 s.

Molecule `COc1ccc(CC(=O)N2CCCC2c2nc(-c3ccc(OC)c(OC)c3)no2)cc1Cl` (stereo not given) yielded an RP-LC retention time of 911 s.

As to `CCOc1ccc(NC(=O)Cn2cnc3cc4c(cc32)OCCO4)cc1`, the RP-LC retention time was found to be 661 s.

`O=C(NC1CCCCCC1)c1ccc(-c2ccsc2)nc1`: the RP-LC retention time was found to be 943 s.

Take `Cc1cccc(NS(=O)(=O)c2ccc3nncn3c2)c1`: the RP-LC retention time amounted to 673 s.

Take `CCCN(Cc1cccs1)C(=O)C1CCc2nc(N3CCC(C)CC3)ncc2C1` (stereo not given): the RP-LC retention time stood at 979 s.

In the case of `CCN(CC)CCNC(=O)Cn1nc(-n2cccc2)c2c(C)cc(C)nc21`, the RP-LC retention time amounted to 636 s.

In the case of `Cc1ccc(C(=O)N2CCCC(COc3ccc(C(=O)NC(C)C)cc3)C2)c(C)c1` (stereo not given), the RP-LC retention time came to 916 s.

As for `Cc1ccc(S(=O)(=O)N2C[C@@H](F)C[C@H]2C(=O)N2CCc3ccccc3C2)cc1`, the RP-LC retention time came out at 923 s.

On to `CCn1cnc2ccc(-c3noc(-c4cccc(Cl)c4)n3)cc21`, for which the RP-LC retention time is 861 s.

For the molecule `O=C(N/N=C/c1coc2ccccc2c1=O)c1cccnc1`, the RP-LC retention time came out at 663 s.

Molecule `CC(NC(=O)c1cccc(N(C)C)c1)C(=O)Nc1nc2ccccc2[nH]1` (stereo not given) registered an RP-LC retention time of 603 s.

In turn, `COc1ccc(Cl)cc1-c1nc(C2CC(=O)N(c3ccc(F)cc3)C2)no1` (stereo not given) came in with an RP-LC retention time of 1030 s.

`O=C(Cn1cccc1-c1nc(-c2ccc(Cl)cc2)cs1)NCCCN1CCOCC1` returned an RP-LC retention time of 612 s.

With `COC(=O)c1cc(S(=O)(=O)N2CCCC2C(=O)Nc2cccc(C(F)(F)F)c2)cn1C` (stereo not given), the RP-LC retention time is 971 s.

For the molecule `CCN1CCN(C(=O)CC2Sc3ncccc3N(CC)C2=O)CC1` (stereo not given), the RP-LC retention time was 576 s.

For `Cc1ccc(NC(=O)c2nc3nc(C)cc(C(F)F)n3n2)c(C)c1`, the RP-LC retention time stood at 854 s.

In the case of `N#Cc1cccc(-c2nc(-c3ccc4c(c3)ncn4CCN3CCCCC3)no2)c1`, the RP-LC retention time was 632 s.
